Calls of active or inactive are those of the source. The rule behind the calls is not given here.
Experiments:
A549 [1] = assay: Induction of apoptosis in human A549 cells assessed as early apoptotic cells at 10 uM incubated for 48 hrs by Annexin V-FITC/PI staining based flow cytometry; format: functional
A549 [2] = assay: Induction of apoptosis in human A549 cells assessed as late apoptotic cells at 10 uM incubated for 48 hrs by Annexin V-FITC/PI staining based flow cytometry; format: functional
A549 [3] = assay: Induction of mitochondria mediated apoptosis in human A549 cells assessed as reduction in HK2 level at […] incubated for 48 hrs by immunofluorescence confocal microscopic analysis; format: functional, cell-based
A549 [4] = assay: Induction of mitochondria mediated apoptosis in human A549 cells assessed as reduction in HK2 level at 1 to 10 uM incubated for 48 hrs by immunofluorescence confocal microscopic analysis; format: functional, cell-based; settings: dose 1-10 µM
A549 [5] = assay: Inhibition of glycolysis in human A549 cells assessed as downregulation of GLUT1 expression in cytosol fraction at 1 to 10 uM incubated for 48 hrs by Western blotting analysis; format: functional, cell-based; settings: dose 1-10 µM
A549 [6] = assay: Antiproliferative activity against human A549 cells assessed as reduction in cell viability incubated for 48 hrs by MTT assay; format: functional, cell-based
A549 [7] = assay: Antiproliferative activity against human A549 cells assessed as inhibition of cell growth incubated for 48 hrs by MTT assay; format: functional, cell-based; settings: A549, 48 h
MDA-MB-231 = assay: Antiproliferative activity against human MDA-MB-231 cells assessed as inhibition of cell growth incubated for 48 hrs by MTT assay; format: functional, cell-based; settings: MDA-MB-231, 48 h
BEAS-2B = assay: Antiproliferative activity against human BEAS-2B cells assessed as inhibition of cell growth incubated for 48 hrs by MTT assay; format: toxicity, cell-based
A549 [8] = assay: Induction of apoptosis in human A549 cells assessed as early apoptotic cells at 1 uM incubated for 48 hrs by Annexin V-FITC/PI staining based flow cytometry; format: functional
A549 [9] = assay: Induction of apoptosis in human A549 cells assessed as early apoptotic cells at 5 uM incubated for 48 hrs by Annexin V-FITC/PI staining based flow cytometry; format: functional
A549 [10] = assay: Induction of apoptosis in human A549 cells assessed as late apoptotic cells at 1 uM incubated for 48 hrs by Annexin V-FITC/PI staining based flow cytometry; format: functional
A549 [11] = assay: Induction of apoptosis in human A549 cells assessed as late apoptotic cells at 5 uM incubated for 48 hrs by Annexin V-FITC/PI staining based flow cytometry; format: functional
A549 [12] = assay: Inhibition of glycolysis in human A549 cells assessed as reduction in glucose uptake incubated for 48 hrs by Amplex red dye based spectrophotometry; format: functional, cell-based
A549 [13] = assay: Inhibition of glycolysis in human A549 cells assessed as reduction in lactate production at 1 uM incubated for 48 hrs by trypan blue staining based spectrophotometry; format: functional
A549 [14] = assay: Inhibition of glycolysis in human A549 cells assessed as reduction in lactate production at 5 uM incubated for 48 hrs by trypan blue staining based spectrophotometry; format: functional
A549 [15] = assay: Inhibition of glycolysis in human A549 cells assessed as reduction in lactate production at 10 uM incubated for 48 hrs by trypan blue staining based spectrophotometry; format: functional
A549 [16] = assay: Inhibition of glycolysis in human A549 cells assessed as downregulation of HK2 expression incubated for 48 hrs by Western blotting analysis; format: functional, cell-based
A549 [17] = assay: Inhibition of glycolysis in human A549 cells assessed as decrease in HK2 activity incubated for 48 hrs by spectrophotometric assay; format: functional, cell-based; settings: A549, 48 h
A549 [18] = assay: Inhibition of glycolysis in human A549 cells assessed as downregulation of GLUT1 expression at 1 to 10 uM incubated for 48 hrs by Western blotting analysis; format: functional, cell-based; settings: dose 1-10 µM
A549 [19] = assay: Inhibition of glycolysis in human A549 cells assessed as downregulation of HK2 expression in mitochondrial fraction at 1 to 10 uM incubated for 48 hrs by Western blotting analysis; format: functional, cell-based; settings: dose 1-10 µM
A549 [20] = assay: Inhibition of glycolysis in human A549 cells assessed as downregulation of HK2 expression in cytosol fraction at 1 to 10 uM incubated for 48 hrs by Western blotting analysis; format: functional, cell-based; settings: dose 1-10 µM
Mitochondrial membrane = assay: Induction of mitochondrial membrane potential loss in human A549 cells at 1 to 10 uM incubated for 48 hrs by JC-1 dye based fluorescence microscopic analysis; format: cell membranes; settings: dose 1-10 µM
A549 [21] = assay: Induction of apoptosis in human A549 cells assessed as downregulation of AKT expression at 1 to 10 uM incubated for 48 hrs by Western blotting analysis; format: functional, cell-based; settings: dose 1-10 µM
A549 [22] = assay: Induction of apoptosis in human A549 cells assessed as downregulation of AKT phosphorylation at 1 to 10 uM incubated for 48 hrs by Western blotting analysis; format: functional, cell-based; settings: dose 1-10 µM
A549 [23] = assay: Induction of apoptosis in human A549 cells assessed as upregulation of Bax expression at 1 to 10 uM incubated for 48 hrs by Western blotting analysis; format: functional, cell-based; settings: dose 1-10 µM
A549 [24] = assay: Induction of apoptosis in human A549 cells assessed as downregulation of Bcl-2 expression at 1 to 10 uM incubated for 48 hrs by Western blotting analysis; format: functional, cell-based; settings: dose 1-10 µM
A549 [25] = assay: Induction of apoptosis in human A549 cells assessed as increase in ratio of Bax/Bcl-2 at 1 to 10 uM incubated for 48 hrs by Western blotting analysis; format: functional, cell-based; settings: dose 1-10 µM
A549 [26] = assay: Induction of apoptosis in human A549 cells assessed as downregulation of Cyt C expression in mitochondrial fraction at 1 to 10 uM incubated for 48 hrs by Western blotting analysis; format: functional, cell-based; settings: dose 1-10 µM
A549 [27] = assay: Induction of apoptosis in human A549 cells assessed as upregulation of Cyt C expression in cytosol fraction at 1 to 10 uM incubated for 48 hrs by Western blotting analysis; format: functional, cell-based; settings: dose 1-10 µM

## CC(C)=CCC[C@]1(C)C=Cc2c(O)c3c(c(CC=C(C)C)c2O1)O[C@]12C(=C[C@@H]4C[C@H]1C(C)(C)O[C@@]2(C/C=C(/C)C(=O)O)C4=O)C3=O [GAMBOGIC ACID]
A549 [1]
  Activity: 30.67%
A549 [2]
  Activity: 30.2%

## OC[C@H]1OC(O)C[C@@H](O)[C@@H]1O (some centres not stated)
A549 [3]
  Activity: Active

## COc1cc(CCc2ccccc2Cl)cc(OC)c1O
A549 [4]
  Activity: Active
A549 [5]
  inhibition: inactive
A549 [6]
  Activity: Dose-dependent-effect
A549 [7]
  IC50: 2.72 µM
MDA-MB-231
  IC50: 19.2 µM
BEAS-2B
  Activity: Toxic
A549 [8]
  Activity: 16.9%
A549 [9]
  Activity: 30.9%
A549 [1]
  Activity: 33.53%
A549 [10]
  Activity: 21.6%
A549 [11]
  Activity: 24.7%
A549 [2]
  Activity: 34.5%
A549 [12]
  inhibition: Dose-dependent-effect
A549 [13]
  Activity: 4.54 mmol/L
A549 [14]
  Activity: 4.38 mmol/L
A549 [15]
  Activity: 3.91 mmol/L
A549 [16]
  inhibition: Dose-dependent-effect
A549 [17]
  IC50: ~10 µM
A549 [18]
  inhibition: Active
A549 [19]
  inhibition: Dose-dependent-effect
A549 [20]
  inhibition: inactive
Mitochondrial membrane
  Activity: Active
A549 [21]
  Activity: inactive
A549 [22]
  Activity: Active
A549 [23]
  Activity: Active
A549 [24]
  Activity: Active
A549 [25]
  Activity: Active
A549 [26]
  Activity: Active
A549 [27]
  Activity: Active

From ChEMBL document CHEMBL6087391, “Novel bibenzyl compound 8Ae induces apoptosis and inhibits glycolysis by detaching hexokinase 2 from mitochondria in A549 cells” (Bioorg Med Chem, 2024)
